By IC50 is commonly meant the point on the concentration scale where inhibition reaches its midpoint.

For one test, the target named is human full-lengt MKNK1 (Homo sapiens (Human), UniProt Q9BUB5, T344D). In words: MKNK1 kinase assay (TR-FRET, 10 μM ATP). It counts as biochemical. An excerpt:
MKNK1-inhibitory activity of compounds of the present invention was quantified employing the MKNK1 TR-FRET assay as described in the following paragraphs.
A recombinant fusion protein of Glutathione-S-Transferase (GST, N-terminally) and human full-lengt MKNK1 (amino acids 1-424 and T344D of accession number BAA 19885.1), expressed in insect cells using baculovirus expression system and purified via glutathione sepharose affinity chromatography, was purchased from Carna Biosciences (product no 02-145) and used as enzyme. As substrate for the kinase reaction the biotinylated peptide biotin-Ahx-[…] (C-terminus in amide form) was used which can be purchased e.g. form the company Biosyntan (Berlin-Buch, Germany).
(§1) For the assay 50 nL of a 100 fold concentrated solution of the test compound in DMSO was pipetted into a black low volume 384 well microtiter plate (Greiner Bio-One, Frickenhausen, Germany), 2 μL of a solution of MKNK1 in aqueous assay buffer [50 mM HEPES pH 7.5, 5 mM magnesium chloride, 1.0 mM dithiothreitol, 0.005% (v/v) Nonidet-P40 (Sigma)] was added and the mixture was incubated for 15 min at 22° C. to allow pre-binding of the test compounds to the enzyme before the start of the kinase reaction. Then the kinase reaction was started by the addition of 3 μL of a solution of adenosine-tri-phosphate (ATP, 16.7 μM=>final conc. in the 5 μL assay volume is 10 μM) and substrate (0.1 μM=>final conc. in the 5 μL assay volume is 0.06 μM) in assay buffer and the resulting mixture was incubated for a reaction time of 45 min at 22° C. The concentration of MKNK1 was adjusted depending of the activity of the enzyme lot and was chosen appropriate to have the assay in the linear range, typical concentrations were in the range of 0.05 μg/ml. The reaction was stopped by the addition of 5 μL of a solution of TR-FRET detection reagents (5 nM streptavidine-XL665 [Cisbio Bioassays, Codolet, France] and 1 nM anti-ribosomal protein S6 (pSer236)-antibody from Invitrogen [#44921G] and 1 nM LANCE EU-W1024 labeled ProteinG [Perkin-Elmer, product no. AD0071]) in an aqueous EDTA-solution (100 mM EDTA, 0.1% (w/v) bovine serum albumin in 50 mM HEPES pH 7.5).
(§2) The resulting mixture was incubated for 1 h at 22° C. to allow the formation of complex between the phosphorylated biotinylated peptide and the detection reagents. Subsequently the amount of phosphorylated substrate was evaluated by measurement of the resonance energy transfer from the Eu-chelate to the streptavidine-XL. Therefore, the fluorescence emissions at 620 nm and 665 nm after excitation at 350 nm were measured in a TR-FRET reader, e.g. a Rubystar (BMG Labtechnologies, Offenburg, Germany) or a Viewlux (Perkin-Elmer). The ratio of the emissions at 665 nm and at 622 nm was taken as the measure for the amount of phosphorylated substrate.

The target of the next test is human full-length MKNK1 (Homo sapiens (Human), UniProt Q9BUB5, T344D). In words: MKNK1 kinase high ATP assay (TR-FRET, 2 mM ATP). It counts as biochemical. Here is the method: MKNK1 Kinase High ATP Assay
MKNK1-inhibitory activity at high ATP of compounds of the present invention after their preincubation with MKNK1 was quantified employing the TR-FRET-based MKNK1 high ATP assay as described in the following paragraphs.
A recombinant fusion protein of Glutathione-S-Transferase (GST, N-terminally) and human full-length MKNK1 (amino acids 1-424 and T344D of accession number BAA 19885.1), expressed in insect cells using baculovirus expression system and purified via glutathione sepharose affinity chromatography, was purchased from Carna Biosciences (product no 02-145) and used as enzyme. As substrate for the kinase reaction the biotinylated peptide biotin-Ahx-[…] (C-terminus in amide form) was used, which can be purchased e.g. from the company Biosyntan (Berlin-Buch, Germany).
as §1, with “3.3 mM=>final” for “16.7 μM=>final”, “2 mM)” for “10 μM)”, “30” for “45”, “0.003 μg/mL.” for “0.05 μg/ml.”
as §2
On the technique in general: TR-FRET usually uses a lanthanide donor and a delayed reading to cut background.

[1] abbreviates: read-out: IC50 MKNK1 (10 μM ATP), 15 min preincubation, GST-MKNK1 T344D.
Where [2] appears, read: read-out: IC50 MKNK1 (2 mM ATP), 15 min preincubation, GST-MKNK1 T344D.
Where [3] appears, read: 15 min preincubation, GST-MKNK1 T344D.

Like-named read-outs stand apart in the source and are kept apart here.

Sequence of human full-length MKNK1 (Q9BUB5 other isoform, or with tags, fused parts or gaps T344D): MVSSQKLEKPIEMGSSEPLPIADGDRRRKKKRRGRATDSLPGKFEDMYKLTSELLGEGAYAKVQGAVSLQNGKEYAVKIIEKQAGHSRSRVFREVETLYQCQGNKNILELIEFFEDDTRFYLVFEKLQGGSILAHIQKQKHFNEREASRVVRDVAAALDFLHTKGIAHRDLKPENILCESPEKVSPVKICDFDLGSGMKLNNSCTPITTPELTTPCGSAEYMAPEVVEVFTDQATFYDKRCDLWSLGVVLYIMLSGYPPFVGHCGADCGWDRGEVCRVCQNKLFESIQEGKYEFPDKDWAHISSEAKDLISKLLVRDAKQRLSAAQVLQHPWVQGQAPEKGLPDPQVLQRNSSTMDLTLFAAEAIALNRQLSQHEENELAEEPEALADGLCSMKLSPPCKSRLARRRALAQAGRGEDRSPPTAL
Sequence of human full-lengt MKNK1 (Q9BUB5 other isoform, or with tags, fused parts or gaps T344D): as above

Turning to `O[C@@H]1CCCC[C@H]1Nc1ccc2ncc(-c3cc4ccccc4o3)n2n1` [Example 9, (1R,2R)-2-{[3-(1-Benzofuran-2-yl)imidazo[1,2-b]pyridazin-6-yl]amino}cyclohexanol], the IC50 at human full-lengt MKNK1 (setting [1]) turned out to be 318 nM; at human full-length MKNK1 (setting [2]) it was 210 nM.
For the molecule `O[C@@H]1CCC[C@@H]1Nc1ccc2ncc(-c3cc4ccccc4o3)n2n1` [Example 7, (1R,2S)-2-{[3-(1-Benzofuran-2-yl)imidazo[1,2-b]pyridazin-6-yl]amino}cyclopentanol], the IC50 on human full-lengt MKNK1 (setting [1]) turned out to be 24 nM; at human full-length MKNK1 (setting [2]), 66 nM.
For `O[C@H]1C[C@H](Nc2ccc3ncc(-c4cc5cnccc5o4)n3n2)C1` [Example 11, trans-3-{[3-(Furo[3,2-c]pyridin-2-yl)imidazo[1,2-b]pyridazin-6-yl]amino}cyclobutanol], in that order: 14 nM and 52 nM.
For `O[C@@H]1CCCC[C@@H]1Nc1ccc2ncc(-c3cc4ccccc4o3)n2n1` [Example 5, (1R,2S)-2-{[3-(1-Benzofuran-2-yl)imidazo[1,2-b]pyridazin-6-yl]amino}cyclohexanol], in that order: 42 nM and 49 nM.
Taken in the same sequence, the figures for `O[C@H]1CCCC[C@@H]1Nc1ccc2ncc(-c3cc4ccccc4o3)n2n1` [Example 8, (1S,2S)-2-{[3-(1-Benzofuran-2-yl)imidazo[1,2-b]pyridazin-6-yl]amino}cyclohexanol] were 126 nM and 94 nM.
On to `O[C@H]1CCC[C@H]1Nc1ccc2ncc(-c3cc4ccccc4o3)n2n1` [Example 3, (1S,2R)-2-{[3-(1-Benzofuran-2-yl)imidazo[1,2-b]pyridazin-6-yl]amino}cyclopentanol], for which the half-inhibitory concentration (IC50) on human full-lengt MKNK1 (setting [1]) worked out at 10 nM; on human full-length MKNK1 (setting [2]), 30 nM.
On to `O[C@H]1CCC[C@@H]1Nc1ccc2ncc(-c3cc4ccccc4o3)n2n1` [Example 6, (1S,2S)-2-{[3-(1-Benzofuran-2-yl)imidazo[1,2-b]pyridazin-6-yl]amino}cyclopentanol], for which the IC50 on human full-lengt MKNK1 (setting [1]) turned out to be 22 nM; at human full-length MKNK1 (setting [2]) it was 52 nM.
`O[C@H]1C[C@H](CNc2ccc3ncc(-c4cc5ccccc5o4)n3n2)C1` [Example 2, trans-3-({[3-(1-Benzofuran-2-yl)imidazo[1,2-b]pyridazin-6-yl]amino}methyl)-cyclobutanol]: the half-inhibitory concentration (IC50) worked out at 9 nM against human full-lengt MKNK1 (setting [3]) and 21 nM at human full-length MKNK1 (setting [3]).
Turning to `OC[C@H]1C[C@H](Nc2ccc3ncc(-c4cc5ccccc5o4)n3n2)C1` [Example 1, (trans-3-{[3-(1-Benzofuran-2-yl)imidazo[1,2-b]pyridazin-6-yl]amino}cyclobutyl)methanol], the values for the IC50 on human full-lengt MKNK1 (setting [1]) and on human full-length MKNK1 (setting [2]) were 8 nM and 11 nM, respectively.
For `O[C@H]1CC[C@H](Nc2ccc3ncc(-c4cc5ccccc5o4)n3n2)CC1` [Example 10, trans-4-{[3-(1-Benzofuran-2-yl)imidazo[1,2-b]pyridazin-6-yl]amino}cyclohexanol], in that order: 12 nM and 31 nM.
For `O[C@@H]1CCC[C@H]1Nc1ccc2ncc(-c3cc4ccccc4o3)n2n1` [Example 4, (1R,2R)-2-{[3-(1-Benzofuran-2-yl)imidazo[1,2-b]pyridazin-6-yl]amino}cyclopentanol], in that order: 14 nM and 41 nM.

The values above are taken from patent US9783543B2, “Aminoimidazopyridazines” (BAYER PHARMA AKTIENGESELLSCHAFT, priority 2012, dated 2017).
